In patent EP3698805A1, “FRACTION OFZANTHOXYLUM PIPERITUM” (Mecox Curemed Co., Ltd., priority 2017, dated 2019):
Several values for one entry are separate records, joined by “and”; a condition that tells them apart may be missing. Equal entries are not always repeated. Where two headings read alike, the source gives them in different places.

Tests used:
mast cell RBL-2H3 = assay: inhibition of mast cell degranulation (β-hexosaminidase secretion); type: cell-based; conditions: for inhibition at 25 µg/mL / inhibition at 100 µg/mL: Rattus norvegicus
Procedure: Inhibition of inflammation-promoting cytokines has been reported to inhibit autoimmune diseases such as atopy. Thus, in the present embodiment, the mast cell RBL-2H3 was treated with the Zanthoxylum piperitum leaf extract or active compounds (quercitrin, afzelin) to evaluate the secretion inhibition ability of β-hexosaminidase. That is, the effect of inhibiting mast cell degranulation by the Zanthoxylum piperitum leaf extract or the active compound (quercitrin, afzelin) was found.

[1] = tested on: acetic acid-induced pain model; assay: acetic acid-induced pain model (writhing syndrome test); type: in vivo, ICR mice; conditions: for Pain inhibition percentage (%)(50 mg/kg, po): active ingredients; for pain inhibition effect: FIG. 3, compounds isolated from ZPE6A or ZPE6C fraction
Procedure: The acetic acid-induced writhing syndrome test is an animal model for determining analgesic effects. It is mainly used to test the effect of analgesics on the peripheral nervous system. The experimental animals used herein were 5-week-old ICR mice purchased from Central Laboratory Animals (Seoul) and acclimated in a breeding room maintained at a humidity of 50% and a temperature of 24 to 26°C for one week. Feed and water were supplied for free intake. […] The test substance was orally administered 60 minutes before the induction of pain to determine the degree of analgesic effect.

[2] = tested on: collagen-induced arthritis animal model; assay: collagen-induced arthritis animal model (clinical score, micro-CT); type: in vivo, DBA/1J mice; design: scale not given here
Procedure: As one of the methods for evaluating the therapeutic effect of rheumatoid arthritis, the antirheumatic efficacy of each test substance was measured in a collagen-induced arthritis animal model. The experimental animals herein used were 5-week-old DBA/1J mice purchased from Central Laboratory Animals (Seoul) and acclimated in a breeding room maintained at a humidity of 50% and a temperature of 24 to 26°C for one week. Feed and water were supplied for free intake. In order to induce arthritis, type 2 collagen and CFA (complete Freund's adjuvant) were mixed to obtain an emulsion. 200 µL of the emulsion was injected subcutaneously […] into the lower part of the tail 2 to 3 cm away from the torso of DBA/1J mice, and the same amount of the emulsion was secondarily injected in […] into the lower part of the tail in the same manner as in the primary injection 21 days after exposure to a primary antigen. A positive control group was orally administered with dexamethasone at a dose of 1 mg/kg from the 22nd day after primary antigen exposure, the group administered with the Zanthoxylum piperitum leaf extract was orally treated at 100 mg/kg for 3 weeks, rheumatoid arthritis lesions were visually observed and graded, and the arthritis alleviation efficacy was measured as a clinical score.

[3] = tested on: pain response induced by formalin; assay: formalin test; type: in vivo, rats; conditions: 100 mg/kg
Procedure: The formalin test is primarily used to measure the analgesic effects of drugs in chronic pain models, in which the pain stimulus and response are not temporary but persistent. The pain response induced by formalin includes phase 1 and phase 2, and these two phases can be distinguished pharmacologically. The test substance and acetaminophen or aspirin, as a positive control group, were orally administered 60 minutes before the induction of pain, 10% formalin was injected subcutaneously into the hind legs of rats, and the number of actions in response to pain was measured every 3 minutes. The action in response to pain was measured separately in phase 1 (0-12 minutes) and phase 2 (24-39 minutes).

[4] = RBL-2H3, read-out: degranulation inhibitory activity compared to the ketotifen drug
[5] = individual animals No. 1-7, extract 100 mg/kg oral 3 weeks, dexamethasone 1 mg/kg oral, listed as Positive control group

| Compound | Effect of inhibiting degranulation (% inhibition) (mast cell RBL-2H3; treatment amount 12.5 µg/mL) | Effect of inhibiting degranulation (% inhibition) (mast cell RBL-2H3; treatment amount 25 µg/mL) | Effect of inhibiting degranulation (% inhibition) (mast cell RBL-2H3; treatment amount 50 µg/mL) | Effect of inhibiting degranulation (% inhibition) (mast cell RBL-2H3; treatment amount 100 µg/mL) | pain inhibition effect [1] | further results |
| --- | --- | --- | --- | --- | --- | --- |
| C[C@@H]1O[C@@H](Oc2c(-c3ccc(O)cc3)oc3cc(O)cc(O)c3c2=O)[C@H](O)[C@H](O)[C@H]1O [Afzelin, camphorol-3-O-alpha-L-rhamnoside] | 25.1 ± 1.68 % inhibition | 39.4 ± 1.06 % inhibition | 41.3 ± 1.67 % inhibition | 40.9 ± 0.98 % inhibition | – | inhibition at 25 µg/mL (mast cell RBL-2H3; RBL-2H3, treatment dose of 25 µg/mL, read-out: degranulation inhibitory activity compared to the ketotifen drug): ~195%; inhibition at 100 µg/mL (mast cell RBL-2H3; RBL-2H3, treatment dose of 100 µg/mL, read-out: degranulation inhibitory activity compared to the ketotifen drug): ~93%; Pain inhibition percentage (%)(50 mg/kg, po) [1]: 93.6% |
| CC(=O)c1ccc(O)cc1 [4'-hydroxyacetophenone] | – | – | – | – | excellent pain inhibition effects | – |
| C[C@@H]1O[C@@H](Oc2c(-c3ccc(O)c(O)c3)oc3cc(O)cc(O)c3c2=O)[C@H](O)[C@H](O)[C@H]1O [Quercitrin, quercetin-3-O-alpha-L-rhamnoside] | 6.3 ± 0.13 % inhibition | 14.3 ± 0.11 % inhibition | 19.8 ± 0.28 % inhibition | 22.2 ± 0.32 % inhibition | – | inhibition at 25 µg/mL (mast cell RBL-2H3; [4]): ~70%; inhibition at 100 µg/mL (mast cell RBL-2H3; [4]): ~50%; Pain inhibition percentage (%)(50 mg/kg, po) [1]: 69.2% |
| C[C@@H]1C[C@H]2[C@@H]3CCC4=CC(=O)C=C[C@]4(C)[C@@]3(F)[C@@H](O)C[C@]2(C)[C@@]1(O)C(=O)CO [dexamethasone] | – | – | – | – | – | average score ([2]; group mean of total clinical score, control group 11.8): 6.3; visual clinical score Right back leg ([2]; individual animals No. 1-7, extract 100 mg/kg oral 3 weeks, dexamethasone 1 mg/kg oral): 1; visual clinical score Left back leg [2, 5]: 1 (5×) and 2 (2×); visual clinical score Left front leg [2, 5]: 3 (2×) and 2 (3×) and 1 (2×); visual clinical score Right front leg [2, 5]: 3 (2×) and 2 (3×) and 1 (2×); visual clinical score Total [2, 5]: 8 and 7 (2×) and 6 (2×) and 5 (2×) |
| CN1CCC(=C2c3ccccc3CC(=O)c3sccc32)CC1 [Ketotifen] | 13.8 ± 0.88 % inhibition | 20.2 ± 0.84 % inhibition | 32.8 ± 1.04 % inhibition | 43.9 ± 1.45 % inhibition | – | – |
| CC(=O)Nc1ccc(O)cc1 [Acetaminophen] | – | – | – | – | – | Inhibition (%) Phase 1 ([3]; phase 1 (0-12 minutes)): 35.2%; Inhibition (%) Phase 2 ([3]; phase 2 (24-39 minutes)): 41.7% |
| O=C(O)c1ccccc1C(=O)O [1,2-benzenedicarboxylic acid] | – | – | – | – | excellent pain inhibition effects | – |
| CC(C)(C)c1ccc(O)c(C(C)(C)C)c1 [2,4-di-tert-butylphenol] | – | – | – | – | excellent pain inhibition effects | – |
